# Measurements taken from the supplement of paper PMC10307832.
# Columns and labels:
# Experiment in all cases: relative viability (nuclei count vs DMSO), 5 days (fraction); higher = more cells survive
# NCI-H2023 = test system: NCI-H2023
# In short: (§1)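 Medians of duplicate plates are given as relative viability. That measure is the nuclei count in treated wells divided by the count in vehicle wells. Counts were taken on 4× images of lung cancer cell lines in 1536-well plates, 5 days after pin-tool dosing the day after seeding with one drug alone or a fixed anchor-drug dose plus five library-drug doses (not always all listed) in √10 steps.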
# NCI-H2347 = test system: NCI-H2347
# In short: as §1
# NCI-H1563 = test system: NCI-H1563
# In short: as §1
# NCI-H1650 = test system: NCI-H1650
# In short: as §1
# NCI-H2009 = test system: NCI-H2009
# In short: as §1
# HOP-62 = test system: HOP-62
# In short: as §1
# NCI-H2085 = test system: NCI-H2085
# In short: as §1
# SW 1573 = test system: SW 1573
# In short: as §1
# SK-LU-1 = test system: SK-LU-1
# In short: as §1
# NCI-H322M = test system: NCI-H322M
# In short: as §1
# NCI-H647 = test system: NCI-H647
# In short: as §1
# PC-14 = test system: PC-14
# In short: as §1
# NCI-H1915 = test system: NCI-H1915
# In short: as §1
# EMC-BAC-2 = test system: EMC-BAC-2
# In short: as §1
# NCI-H2126 = test system: NCI-H2126
# In short: as §1
# H3255 = test system: H3255
# In short: as §1
# NCI-H1993 = test system: NCI-H1993
# In short: as §1
# NCI-H727 = test system: NCI-H727
# In short: as §1
# LCLC-97TM1 = test system: LCLC-97TM1
# In short: as §1
# EPLC-272H = test system: EPLC-272H
# In short: as §1
# LXF-289 = test system: LXF-289
# In short: as §1
# NCI-H661 = test system: NCI-H661
# In short: as §1
smiles,measurement,setting,value
C=C1C(=O)O[C@@H](CCCCCCCC)[C@@H]1C(=O)O [C-75] + CC(C)C[C@H](NC(=O)[C@H](Cc1ccccc1)NC(=O)c1cnccn1)B(O)O [Bortezomib] (partner 0.002 µM),relative viability,NCI-H2023; first compound 0.08 µM,1.04
same,relative viability,NCI-H2023; first compound 0.253 µM,1.22
same,relative viability,NCI-H2023; first compound 0.8 µM,0.902
same,relative viability,NCI-H2023; first compound 2.53 µM,0.843
same,relative viability,NCI-H2023; first compound 8 µM,0.835
same,relative viability,NCI-H2347; first compound 0.08 µM,1.06
same,relative viability,NCI-H2347; first compound 0.253 µM,1.09
same,relative viability,NCI-H2347; first compound 2.53 µM,0.851
same,relative viability,NCI-H2347; first compound 8 µM,0.741
same,relative viability,NCI-H1563; first compound 0.08 µM,0.855
same,relative viability,NCI-H1563; first compound 0.253 µM,1.1
same,relative viability,NCI-H1563; first compound 0.8 µM,0.963
same,relative viability,NCI-H1563; first compound 2.53 µM,0.763
same,relative viability,NCI-H1563; first compound 8 µM,0.906
same,relative viability,NCI-H1650; first compound 0.08 µM,0.223
same,relative viability,NCI-H1650; first compound 0.253 µM,0.212
same,relative viability,NCI-H1650; first compound 0.8 µM,0.198
same,relative viability,NCI-H1650; first compound 2.53 µM,0.158
same,relative viability,NCI-H1650; first compound 8 µM,0.187
same,relative viability,NCI-H2009; first compound 0.08 µM,1.03
same,relative viability,NCI-H2009; first compound 0.253 µM,1.06
same,relative viability,NCI-H2009; first compound 0.8 µM,0.927
same,relative viability,NCI-H2009; first compound 2.53 µM,0.826
same,relative viability,NCI-H2009; first compound 8 µM,0.866
same,relative viability,HOP-62; first compound 0.08 µM,0.651
same,relative viability,HOP-62; first compound 0.253 µM,0.676
same,relative viability,HOP-62; first compound 0.8 µM,0.89
same,relative viability,HOP-62; first compound 2.53 µM,0.778
same,relative viability,HOP-62; first compound 8 µM,0.916
same,relative viability,NCI-H2085; first compound 0.08 µM,1.13
same,relative viability,NCI-H2085; first compound 0.253 µM,0.882
same,relative viability,NCI-H2085; first compound 0.8 µM,0.999
same,relative viability,NCI-H2085; first compound 2.53 µM,0.76
same,relative viability,NCI-H2085; first compound 8 µM,0.897
same,relative viability,SW 1573; first compound 0.08 µM,1.05
same,relative viability,SW 1573; first compound 0.253 µM,0.949
same,relative viability,SW 1573; first compound 0.8 µM,1.03
same,relative viability,SW 1573; first compound 2.53 µM,1.07
same,relative viability,SW 1573; first compound 8 µM,0.912
same,relative viability,SK-LU-1; first compound 0.08 µM,1.24
same,relative viability,SK-LU-1; first compound 0.253 µM,1.11
same,relative viability,SK-LU-1; first compound 0.8 µM,0.836
same,relative viability,SK-LU-1; first compound 2.53 µM,0.847
same,relative viability,SK-LU-1; first compound 8 µM,0.658
same,relative viability,NCI-H322M; first compound 0.08 µM,1.36
same,relative viability,NCI-H322M; first compound 0.253 µM,1.45
same,relative viability,NCI-H322M; first compound 0.8 µM,1.21
same,relative viability,NCI-H322M; first compound 2.53 µM,1.09
same,relative viability,NCI-H322M; first compound 8 µM,1.25
same,relative viability,NCI-H647; first compound 0.08 µM,0.836
same,relative viability,NCI-H647; first compound 0.253 µM,1.1
same,relative viability,NCI-H647; first compound 2.53 µM,0.869
same,relative viability,NCI-H647; first compound 8 µM,0.809
same,relative viability,PC-14; first compound 0.08 µM,0.853
same,relative viability,PC-14; first compound 0.253 µM,0.969
same,relative viability,PC-14; first compound 0.8 µM,0.94
same,relative viability,PC-14; first compound 2.53 µM,0.726
same,relative viability,PC-14; first compound 8 µM,0.965
same,relative viability,NCI-H1915; first compound 0.08 µM,0.89
same,relative viability,NCI-H1915; first compound 0.253 µM,0.977
same,relative viability,NCI-H1915; first compound 0.8 µM,0.935
same,relative viability,NCI-H1915; first compound 2.53 µM,0.81
same,relative viability,NCI-H1915; first compound 8 µM,0.922
same,relative viability,EMC-BAC-2; first compound 0.08 µM,1.1
same,relative viability,EMC-BAC-2; first compound 0.253 µM,1.05
same,relative viability,EMC-BAC-2; first compound 0.8 µM,1.11
same,relative viability,EMC-BAC-2; first compound 2.53 µM,0.914
same,relative viability,EMC-BAC-2; first compound 8 µM,1.13
same,relative viability,NCI-H2126; first compound 0.08 µM,1.1
same,relative viability,NCI-H2126; first compound 0.253 µM,1.29
same,relative viability,NCI-H2126; first compound 0.8 µM,1.09
same,relative viability,NCI-H2126; first compound 2.53 µM,0.886
same,relative viability,NCI-H2126; first compound 8 µM,1.08
same,relative viability,H3255; first compound 0.08 µM,0.841
same,relative viability,H3255; first compound 0.253 µM,0.811
same,relative viability,H3255; first compound 0.8 µM,0.715
same,relative viability,H3255; first compound 2.53 µM,0.799
same,relative viability,H3255; first compound 8 µM,0.8
same,relative viability,NCI-H1993; first compound 0.08 µM,0.951
same,relative viability,NCI-H1993; first compound 0.253 µM,1.24
same,relative viability,NCI-H1993; first compound 0.8 µM,1.08
same,relative viability,NCI-H1993; first compound 2.53 µM,0.54
same,relative viability,NCI-H1993; first compound 8 µM,1.09
same,relative viability,NCI-H727; first compound 0.08 µM,0.773
same,relative viability,NCI-H727; first compound 0.253 µM,1.32
same,relative viability,NCI-H727; first compound 0.8 µM,0.614
same,relative viability,NCI-H727; first compound 2.53 µM,0.582
same,relative viability,NCI-H727; first compound 8 µM,0.99
same,relative viability,LCLC-97TM1; first compound 0.08 µM,0.636
same,relative viability,LCLC-97TM1; first compound 0.253 µM,0.595
same,relative viability,LCLC-97TM1; first compound 0.8 µM,0.222
same,relative viability,LCLC-97TM1; first compound 2.53 µM,0.477
same,relative viability,LCLC-97TM1; first compound 8 µM,0.218
same,relative viability,EPLC-272H; first compound 0.08 µM,1.03
same,relative viability,EPLC-272H; first compound 0.253 µM,0.845
same,relative viability,EPLC-272H; first compound 0.8 µM,0.792
same,relative viability,EPLC-272H; first compound 2.53 µM,0.833
same,relative viability,EPLC-272H; first compound 8 µM,0.913
same,relative viability,LXF-289; first compound 0.08 µM,0.945
same,relative viability,LXF-289; first compound 0.253 µM,0.984
same,relative viability,LXF-289; first compound 0.8 µM,0.889
same,relative viability,LXF-289; first compound 2.53 µM,0.951
same,relative viability,LXF-289; first compound 8 µM,0.989
same,relative viability,NCI-H661; first compound 0.08 µM,0.696
same,relative viability,NCI-H661; first compound 0.253 µM,0.873
same,relative viability,NCI-H661; first compound 0.8 µM,0.731
same,relative viability,NCI-H661; first compound 2.53 µM,0.973
same,relative viability,NCI-H661; first compound 8 µM,0.655
